The values that follow come from article PMC4774911, “Biochemical Screening of Five Protein Kinases from Plasmodium falciparum against 14,000 Cell-Active Compounds” (PLoS ONE, 2016).

Values joined by “and” are separate entries in the source; they are usually repeats but may differ in a detail not shown here. Equal entries are not always repeated. A value given as a limit tells only on which side of the number the result lay.

Holding throughout (experiment): biochemical
One assay concerns the target T1, TAOK2 (Homo sapiens, UniProt Q9UL54).
T1 sequence (Q9UL54 1-1235): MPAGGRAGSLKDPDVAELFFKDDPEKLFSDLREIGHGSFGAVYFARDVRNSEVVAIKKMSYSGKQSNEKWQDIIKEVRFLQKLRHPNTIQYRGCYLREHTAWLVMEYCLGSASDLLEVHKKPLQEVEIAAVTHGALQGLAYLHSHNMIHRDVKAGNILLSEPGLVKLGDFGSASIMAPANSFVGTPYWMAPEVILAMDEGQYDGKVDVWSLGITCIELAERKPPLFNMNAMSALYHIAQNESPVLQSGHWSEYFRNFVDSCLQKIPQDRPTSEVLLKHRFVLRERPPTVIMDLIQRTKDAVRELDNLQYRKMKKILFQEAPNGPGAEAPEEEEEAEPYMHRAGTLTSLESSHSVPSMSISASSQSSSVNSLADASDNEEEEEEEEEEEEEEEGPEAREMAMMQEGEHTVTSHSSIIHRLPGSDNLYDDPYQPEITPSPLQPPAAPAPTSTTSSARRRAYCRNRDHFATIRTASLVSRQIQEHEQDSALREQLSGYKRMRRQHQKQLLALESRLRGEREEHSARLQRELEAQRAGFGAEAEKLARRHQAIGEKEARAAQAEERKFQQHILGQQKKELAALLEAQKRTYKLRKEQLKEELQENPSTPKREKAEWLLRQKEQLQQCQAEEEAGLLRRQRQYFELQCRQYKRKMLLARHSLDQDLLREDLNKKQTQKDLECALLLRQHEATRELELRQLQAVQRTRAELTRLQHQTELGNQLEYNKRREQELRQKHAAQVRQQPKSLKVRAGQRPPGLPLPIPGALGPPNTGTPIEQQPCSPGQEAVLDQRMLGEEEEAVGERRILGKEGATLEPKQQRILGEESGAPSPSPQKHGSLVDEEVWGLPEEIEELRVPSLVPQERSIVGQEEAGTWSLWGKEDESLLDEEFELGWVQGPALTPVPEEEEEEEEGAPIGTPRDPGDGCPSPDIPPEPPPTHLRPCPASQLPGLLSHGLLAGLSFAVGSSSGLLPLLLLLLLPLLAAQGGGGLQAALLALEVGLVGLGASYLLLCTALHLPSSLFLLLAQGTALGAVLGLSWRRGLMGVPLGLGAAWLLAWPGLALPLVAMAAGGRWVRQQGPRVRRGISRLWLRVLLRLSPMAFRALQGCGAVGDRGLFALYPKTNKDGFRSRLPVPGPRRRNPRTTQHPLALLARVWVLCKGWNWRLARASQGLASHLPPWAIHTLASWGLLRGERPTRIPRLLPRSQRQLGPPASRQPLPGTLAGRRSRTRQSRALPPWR

For a further assay, the target named is TNK2 (Homo sapiens, UniProt Q07912).
A further assay deals with NEK6 (Homo sapiens, UniProt Q9HC98).
In the next assay the target is T2, CHEK1 (Homo sapiens, UniProt O14757).
T2 sequence (O14757 1-476): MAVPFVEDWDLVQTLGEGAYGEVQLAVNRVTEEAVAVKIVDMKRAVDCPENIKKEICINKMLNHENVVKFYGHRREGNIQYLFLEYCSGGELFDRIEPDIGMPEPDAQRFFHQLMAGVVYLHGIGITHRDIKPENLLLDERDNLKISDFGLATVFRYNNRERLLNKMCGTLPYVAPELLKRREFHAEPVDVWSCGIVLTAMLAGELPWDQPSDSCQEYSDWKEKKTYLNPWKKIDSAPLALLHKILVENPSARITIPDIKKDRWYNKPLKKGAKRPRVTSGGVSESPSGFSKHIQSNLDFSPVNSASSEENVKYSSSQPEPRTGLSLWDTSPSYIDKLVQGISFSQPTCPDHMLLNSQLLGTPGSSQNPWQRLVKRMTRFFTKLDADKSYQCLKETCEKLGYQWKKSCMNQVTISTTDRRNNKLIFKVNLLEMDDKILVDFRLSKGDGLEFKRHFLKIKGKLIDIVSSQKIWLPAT

The next assay has as its target ABL1. More on the design: species or system human, K562 (extract); replicate k of n = 2 (each experiment ID is one independent experiment; two experiment IDs per compound). Conditions: human; read-out: KDapp.
The target of a further assay is LOC100128443. More on the design: species or system human, K562 (extract); replicate k of n = 2 (each experiment ID is one independent experiment; two experiment IDs per compound). The settings on record: human; read-out: KDapp.
In assay [1] the target is T3, Plasmodium falciparum protein kinase 6 (PK6) (Plasmodium falciparum, UniProt Q8IDW1).
T3 construct: 6-Histidine (N); made in house
T3 sequence (Q8IDW1 1-305): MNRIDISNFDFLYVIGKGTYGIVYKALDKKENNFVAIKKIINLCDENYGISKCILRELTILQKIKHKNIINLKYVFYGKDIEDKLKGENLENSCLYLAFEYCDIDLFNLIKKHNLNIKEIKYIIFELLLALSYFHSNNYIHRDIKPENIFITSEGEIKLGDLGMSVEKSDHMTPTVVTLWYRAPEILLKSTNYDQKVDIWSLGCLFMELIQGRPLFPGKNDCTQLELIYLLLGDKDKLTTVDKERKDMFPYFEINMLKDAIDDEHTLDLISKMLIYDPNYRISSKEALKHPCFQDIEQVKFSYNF
Conditions: hits below 1 uM; read-out: PK6 IC50.

For another assay, the target named is IRAK1 (Homo sapiens, UniProt P51617). More on the design: endogenous in cells; host or cells: K562 cell extract; species or system K562 (extract); replicate k of n = 2 (each experiment ID is one independent experiment; two experiment IDs per compound). Conditions: read-out: KDapp.
The next assay concerns the target LIMK1 (Homo sapiens, UniProt P53667). The arrangement: endogenous in cells; host or cells: K562 cell extract; species or system K562 (extract); replicate k of n = 2 (each experiment ID is one independent experiment; two experiment IDs per compound). The settings on record: read-out: KDapp.

Chain of IRAK1 (P51617 whole entry): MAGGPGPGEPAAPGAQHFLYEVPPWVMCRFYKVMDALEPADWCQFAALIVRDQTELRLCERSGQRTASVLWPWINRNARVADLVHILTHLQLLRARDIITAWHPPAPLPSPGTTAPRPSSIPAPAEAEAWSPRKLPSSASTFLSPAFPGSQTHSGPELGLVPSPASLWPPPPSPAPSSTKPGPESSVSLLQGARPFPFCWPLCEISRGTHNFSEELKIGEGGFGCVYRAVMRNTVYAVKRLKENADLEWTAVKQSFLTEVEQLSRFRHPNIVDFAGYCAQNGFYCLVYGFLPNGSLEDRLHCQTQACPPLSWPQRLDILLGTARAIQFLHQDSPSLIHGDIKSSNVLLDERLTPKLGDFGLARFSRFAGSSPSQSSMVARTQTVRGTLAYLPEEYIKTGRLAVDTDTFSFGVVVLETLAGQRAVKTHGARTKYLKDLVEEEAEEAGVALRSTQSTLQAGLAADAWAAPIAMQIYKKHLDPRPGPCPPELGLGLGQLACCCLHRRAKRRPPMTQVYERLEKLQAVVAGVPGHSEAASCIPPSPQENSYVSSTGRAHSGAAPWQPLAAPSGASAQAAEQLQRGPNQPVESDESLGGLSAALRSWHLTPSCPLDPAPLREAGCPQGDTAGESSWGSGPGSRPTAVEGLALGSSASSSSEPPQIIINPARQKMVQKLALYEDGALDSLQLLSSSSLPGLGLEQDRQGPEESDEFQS
Chain of NEK6 (Q9HC98 whole entry): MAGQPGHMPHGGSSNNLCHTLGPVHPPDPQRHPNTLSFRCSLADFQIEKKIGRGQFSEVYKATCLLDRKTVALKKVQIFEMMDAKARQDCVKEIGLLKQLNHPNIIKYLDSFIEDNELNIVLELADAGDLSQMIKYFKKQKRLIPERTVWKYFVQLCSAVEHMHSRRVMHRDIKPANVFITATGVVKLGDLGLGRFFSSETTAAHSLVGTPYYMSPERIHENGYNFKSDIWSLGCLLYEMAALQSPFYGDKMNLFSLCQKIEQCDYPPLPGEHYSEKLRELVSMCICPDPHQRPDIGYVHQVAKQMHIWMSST
Chain of TNK2 (Q07912 whole entry): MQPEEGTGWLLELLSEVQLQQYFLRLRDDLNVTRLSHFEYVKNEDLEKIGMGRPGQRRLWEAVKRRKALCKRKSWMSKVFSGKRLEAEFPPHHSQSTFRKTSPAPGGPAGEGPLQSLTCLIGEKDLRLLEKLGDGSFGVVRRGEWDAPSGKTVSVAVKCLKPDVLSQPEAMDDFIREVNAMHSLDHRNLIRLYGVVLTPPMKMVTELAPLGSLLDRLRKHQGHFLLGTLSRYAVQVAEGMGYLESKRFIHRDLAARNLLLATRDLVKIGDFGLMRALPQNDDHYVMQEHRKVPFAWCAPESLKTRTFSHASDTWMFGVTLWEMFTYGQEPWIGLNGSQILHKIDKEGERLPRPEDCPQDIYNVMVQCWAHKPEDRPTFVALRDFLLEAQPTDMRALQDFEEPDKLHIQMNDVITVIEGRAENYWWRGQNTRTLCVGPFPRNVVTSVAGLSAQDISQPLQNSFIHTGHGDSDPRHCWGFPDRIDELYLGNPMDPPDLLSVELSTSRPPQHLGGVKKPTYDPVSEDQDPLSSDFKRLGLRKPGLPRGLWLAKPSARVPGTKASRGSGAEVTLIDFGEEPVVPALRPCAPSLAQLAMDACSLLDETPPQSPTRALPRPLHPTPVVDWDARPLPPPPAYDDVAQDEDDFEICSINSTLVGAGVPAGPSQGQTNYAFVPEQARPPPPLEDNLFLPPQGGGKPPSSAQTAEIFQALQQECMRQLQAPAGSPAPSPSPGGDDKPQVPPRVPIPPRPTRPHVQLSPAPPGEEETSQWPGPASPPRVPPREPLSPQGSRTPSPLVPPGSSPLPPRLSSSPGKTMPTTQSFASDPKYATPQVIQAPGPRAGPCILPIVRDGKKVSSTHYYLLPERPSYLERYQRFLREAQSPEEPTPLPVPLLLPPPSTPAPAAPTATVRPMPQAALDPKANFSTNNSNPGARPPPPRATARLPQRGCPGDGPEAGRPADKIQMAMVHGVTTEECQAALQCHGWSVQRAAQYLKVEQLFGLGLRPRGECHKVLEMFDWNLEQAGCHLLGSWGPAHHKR
Chain of LIMK1 (P53667 whole entry): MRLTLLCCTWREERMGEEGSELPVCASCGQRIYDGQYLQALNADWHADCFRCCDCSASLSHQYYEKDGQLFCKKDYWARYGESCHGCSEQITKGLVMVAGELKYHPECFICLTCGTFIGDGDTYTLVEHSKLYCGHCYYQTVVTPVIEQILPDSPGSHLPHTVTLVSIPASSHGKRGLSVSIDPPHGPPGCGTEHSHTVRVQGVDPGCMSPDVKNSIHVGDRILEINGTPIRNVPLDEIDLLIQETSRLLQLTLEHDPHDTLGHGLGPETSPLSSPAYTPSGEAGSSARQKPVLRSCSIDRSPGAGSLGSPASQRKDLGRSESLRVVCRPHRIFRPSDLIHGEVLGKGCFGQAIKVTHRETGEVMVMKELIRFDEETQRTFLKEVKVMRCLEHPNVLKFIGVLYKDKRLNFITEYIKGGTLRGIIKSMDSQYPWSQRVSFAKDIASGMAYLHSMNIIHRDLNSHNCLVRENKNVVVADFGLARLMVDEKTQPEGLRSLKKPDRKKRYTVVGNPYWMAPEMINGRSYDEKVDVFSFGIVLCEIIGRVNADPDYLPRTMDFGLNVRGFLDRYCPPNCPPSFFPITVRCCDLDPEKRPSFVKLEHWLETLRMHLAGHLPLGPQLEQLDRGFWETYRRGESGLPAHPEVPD
Chain of ABL1 (P00519 whole entry): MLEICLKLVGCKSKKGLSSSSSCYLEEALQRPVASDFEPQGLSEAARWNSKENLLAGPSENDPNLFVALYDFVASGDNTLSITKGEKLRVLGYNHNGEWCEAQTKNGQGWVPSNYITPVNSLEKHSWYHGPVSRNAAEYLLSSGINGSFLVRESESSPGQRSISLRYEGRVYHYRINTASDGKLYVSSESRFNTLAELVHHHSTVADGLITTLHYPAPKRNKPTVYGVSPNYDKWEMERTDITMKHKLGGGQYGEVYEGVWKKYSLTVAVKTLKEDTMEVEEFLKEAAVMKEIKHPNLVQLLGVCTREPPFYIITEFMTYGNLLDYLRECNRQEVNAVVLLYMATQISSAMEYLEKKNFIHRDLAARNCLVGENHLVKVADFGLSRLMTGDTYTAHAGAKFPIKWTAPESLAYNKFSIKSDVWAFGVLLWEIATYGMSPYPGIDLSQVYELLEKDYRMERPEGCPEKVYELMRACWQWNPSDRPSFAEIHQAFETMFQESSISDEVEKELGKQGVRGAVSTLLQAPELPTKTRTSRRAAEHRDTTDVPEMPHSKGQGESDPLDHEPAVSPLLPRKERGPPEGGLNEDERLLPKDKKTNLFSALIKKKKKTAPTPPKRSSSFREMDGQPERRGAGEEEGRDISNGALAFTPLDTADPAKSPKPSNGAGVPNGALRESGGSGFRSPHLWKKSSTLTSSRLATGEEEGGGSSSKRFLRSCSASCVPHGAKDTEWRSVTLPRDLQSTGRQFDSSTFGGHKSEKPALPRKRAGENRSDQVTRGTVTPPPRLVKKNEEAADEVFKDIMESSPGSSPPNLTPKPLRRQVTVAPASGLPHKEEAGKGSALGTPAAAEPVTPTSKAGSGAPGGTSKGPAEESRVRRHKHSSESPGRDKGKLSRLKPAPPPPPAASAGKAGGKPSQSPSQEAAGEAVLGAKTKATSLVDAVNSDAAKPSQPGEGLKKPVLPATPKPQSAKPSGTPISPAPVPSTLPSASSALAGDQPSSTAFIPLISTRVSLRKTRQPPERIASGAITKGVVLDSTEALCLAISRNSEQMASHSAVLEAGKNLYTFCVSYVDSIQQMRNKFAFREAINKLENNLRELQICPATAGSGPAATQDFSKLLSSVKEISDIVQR

With `CN1CCN(c2ccc(Nc3ncc(C#N)c(Nc4ccccc4C(N)=O)n3)cc2)CC1.Cl` [TCMDC-134116], the IC50 worked out at 400 nM against TAOK2; 160 nM against TNK2; 260 nM at NEK6; 220 nM against CHEK1; 89 nM in assay [1]. Besides, the Kd on ABL1 is 58.6 nM; on LOC100128443, 199 nM; at IRAK1 it was 92.9 nM and 81.3 nM; at LIMK1, 121 nM.
Consider `Cl.NCC1(c2nc(-c3ccc(Cl)c(O)c3)c(-c3ccncc3)[nH]2)CCCCC1` [TCMDC-141154], for which the IC50 on TNK2, on NEK6 and against CHEK1 was > 20000 nM throughout.
With `CN(C)CC(O)COc1ccc(Nc2ncc([N+](=O)[O-])c(Nc3ccccc3O)n2)cc1.O=C(O)C(F)(F)F` (centres unmarked) [TCMDC-141399], the IC50 against TAOK2 was > 20000 nM; in assay [1], 67 nM.
